US5677419A, “Cyclic vasoactive peptide analogs” (Hoffmann-La Roche Inc., priority 1994, dated 1997)
Where a SMILES comes first, the peptide text is derived from it. Bridges are numbered along the chain shown (N, C = ends). [ ]: non-standard residue; d: D form. Phe(4-NH2) = Nc1ccc(C[C@H](N)C(=O)O)cc1; Phe(4-F) = N[C@@H](Cc1ccc(F)cc1)C(=O)O; 1Nal = N[C@@H](Cc1cccc2ccccc12)C(=O)O; 2Nal = N[C@@H](Cc1ccc2ccccc2c1)C(=O)O; Nle = CCCC[C@H](N)C(=O)O

Test system: guinea pig tracheal smooth muscle
Assay: Tracheal relaxant activity of VIP analogs on isolated guinea pig tracheal rings
Format: cell-based
Conditions: cumulative concentration response, relaxation as % of maximum response to VIP (10^-6 M=100%), three tissues pooled, linear regression
Protocol: The relaxant activity of the VIP analogs were studied in a model utilizing guinea pig trachea. [Wasserman, M. A. et al., in Vasoactive Intestinal Peptide, S. I. Said, ed., Raven Press, New York 1982, pp 177-184] All tissues were taken from male albino guinea pig weighing 400-600 g, anesthetized with urethane (2 g/kg, i.p.). After exanguination, the trachea were removed and divided into four ring segments (3 mm length). Each ring was suspended by 30 gauge stainless steel wires in a 10 mL jacketed tissue bath and attached via 4-0 silk thread to a GRASS force displacement transducer (model FT03C, Grass Instruments Co., Quincy, Mass.), for isometric recording of tension. The smooth muscle was bathed in modified Krebs solution of the following composition: NaCl, 120 mM; KCl, 4.7 mM; CaCl2, 2.5 mM; MgSO4.7H2 O, 1.2 mM; NaHCO3, 25 mM; K2 HPO4 monobasic, 1.2 mM; and dextrose, 10 mM. Tissue baths were maintained at 37° C. and constantly bubbled with 95% O2 and 5% CO2. Responses were recorded on an 8 channel and a 4 channel HEWLETT-PACKARD (model 7702B and 7754A, respectively) recorder (Hewlett- Packard, Paramus, N.J.). Tracheal rings were placed under a resting tension of 1.5 g which was determined to be at or near optimal in preliminary experiments. Frequent readjustments of tension were required during the 60 minute stabilization period which followed. Tissues were rinsed at 15 minute intervals.
Cumulative concentration response curves were obtained for each tissue by successive […] increases in the bath concentration of VIP or VIP analogs according to the method of VanRossum [Arch. Int. Pharmacodyn., 143, 299-330 (1963)]. Only one cumulative dose response curve was obtained on a single tissue. To minimize variability between tissues, relaxant responses were expressed as a percentage of the maximum response obtained to VIP (10^-6 M=100%) added at the end of each concentration response experiment. Responses obtained from three tissues were pooled and EC50 values were determined by linear regression.
The results summarized in Table I show the tracheal relaxant activity of the VIP analogs in comparison to native VIP.

## CCCC[C@H](NC(=O)[C@H](CCC(N)=O)NC(=O)[C@H](CCCCN)NC(=O)[C@H](CCCNC(=N)N)NC(=O)[C@H](CC(C)C)NC(=O)[C@H](CC(C)C)NC(=O)[C@@H](NC(=O)[C@H](Cc1ccc2ccccc2c1)NC(=O)[C@H](CC(N)=O)NC(=O)[C@H](CC(=O)O)NC(=O)[C@@H](NC(=O)[C@H](Cc1ccccc1)NC(=O)[C@@H](NC(=O)[C@H](C)NC(=O)[C@H](CC(=O)O)NC(=O)[C@H](CO)NC(=O)[C@H](Cc1c[nH]cn1)NC(C)=O)C(C)C)[C@@H](C)O)[C@@H](C)O)C(=O)N[C@@H](C)C(=O)N[C@@H](C)C(=O)N[C@@H](CCCCN)C(=O)N[C@H]1CCCCNC(=O)C[C@@H](C(=O)N[C@H](C(=O)N[C@@H](CC(C)C)C(=O)N[C@H](C(N)=O)[C@@H](C)O)C(C)C)NC(=O)[C@H](CC(N)=O)NC(=O)[C@H](CC(C)C)NC(=O)[C@H](Cc2ccc(O)cc2)NC1=O [SEQ ID NO:35, Ac-[2-Nal^10,Leu^12,Nle^17,Ala^19,Asp^25,Val^26,Thr^28]-VIP cyclo (Lys^21 →Asp^25)] (Ac-HSDAVFTDN[2Nal]TLLRKQ[Nle]AAKKYLNDVLT-NH2; lactam 21-25)
  EC50: 4.2 nM

## CCCC[C@H](NC(=O)[C@H](CCC(N)=O)NC(=O)[C@H](CCCCN)NC(=O)[C@H](CCCNC(=N)N)NC(=O)[C@H](CC(C)C)NC(=O)[C@H](CC(C)C)NC(=O)[C@@H](NC(=O)[C@H](Cc1ccc(OC)cc1)NC(=O)[C@H](CC(N)=O)NC(=O)[C@H](CC(=O)O)NC(=O)[C@@H](NC(=O)[C@H](Cc1ccccc1)NC(=O)[C@@H](NC(=O)[C@H](C)NC(=O)[C@H](CC(=O)O)NC(=O)[C@H](CO)NC(=O)[C@H](Cc1c[nH]cn1)NC(C)=O)C(C)C)[C@@H](C)O)[C@@H](C)O)C(=O)N[C@@H](C)C(=O)N[C@@H](C)C(=O)N[C@@H](CCCCN)C(=O)N[C@H]1CCCCNC(=O)C[C@@H](C(=O)N[C@H](C(=O)N[C@@H](CC(C)C)C(=O)N[C@H](C(N)=O)[C@@H](C)O)C(C)C)NC(=O)[C@H](CC(N)=O)NC(=O)[C@H](CC(C)C)NC(=O)[C@H](Cc2ccc(O)cc2)NC1=O [SEQ ID NO:36, Ac-[O-Me-Tyr^10,Leu^12,Nle^17,Ala^19,Asp^25,Val^26,Thr^28]-VIP cyclo (Lys^21 →Asp^25)] (Ac-HSDAVFTDNY(Me)TLLRKQ[Nle]AAKKYLNDVLT-NH2; lactam 21-25)
  EC50: 0.84 nM

## CCCC[C@H](NC(=O)[C@H](CCC(N)=O)NC(=O)[C@H](CCCCN)NC(=O)[C@H](CCCNC(=N)N)NC(=O)[C@H](CC(C)C)NC(=O)[C@H](CC(C)C)NC(=O)[C@@H](NC(=O)[C@H](Cc1ccc(N)cc1)NC(=O)[C@H](CC(N)=O)NC(=O)[C@H](CC(=O)O)NC(=O)[C@@H](NC(=O)[C@H](Cc1ccc(F)cc1)NC(=O)[C@@H](NC(=O)[C@H](C)NC(=O)[C@H](CC(=O)O)NC(=O)[C@H](CO)NC(=O)[C@H](Cc1c[nH]cn1)NC(C)=O)C(C)C)[C@@H](C)O)[C@@H](C)O)C(=O)N[C@@H](C)C(=O)N[C@@H](C)C(=O)N[C@@H](CCCCN)C(=O)N[C@H]1CCCCNC(=O)C[C@@H](C(=O)N[C@H](C(=O)N[C@@H](CC(C)C)C(=O)N[C@H](C(N)=O)[C@@H](C)O)C(C)C)NC(=O)[C@H](CC(N)=O)NC(=O)[C@H](CC(C)C)NC(=O)[C@H](Cc2ccc(O)cc2)NC1=O [SEQ ID NO:37, Ac-[p-F-Phe^6,p-NH2 -Phe^10,Leu^12,Nle^17,Ala^19,Asp^25,Val^26,Thr^28]-VIP cyclo (Lys^21 →Asp^25)] (Ac-HSDAV[Phe(4-F)]TDN[Phe(4-NH2)]TLLRKQ[Nle]AAKKYLNDVLT-NH2; lactam 21-25)
  EC50: 4.4 nM

## CCCC[C@H](NC(=O)[C@H](CCC(N)=O)NC(=O)[C@H](CCCCN)NC(=O)[C@H](CCCNC(=N)N)NC(=O)[C@H](CC(C)C)NC(=O)[C@H](CCCCN)NC(=O)[C@@H](NC(=O)[C@H](Cc1ccc(OC)cc1)NC(=O)[C@H](CC(N)=O)NC(=O)[C@H](CC(=O)O)NC(=O)[C@@H](NC(=O)[C@H](Cc1ccccc1)NC(=O)[C@@H](NC(=O)[C@H](C)NC(=O)[C@H](CC(=O)O)NC(=O)[C@H](CO)NC(=O)[C@H](Cc1c[nH]cn1)NC(C)=O)C(C)C)[C@@H](C)O)[C@@H](C)O)C(=O)N[C@@H](C)C(=O)N[C@@H](C)C(=O)N[C@@H](CCCCN)C(=O)N[C@H]1CCCCNC(=O)C[C@@H](C(=O)N[C@H](C(=O)N[C@@H](CC(C)C)C(=O)N[C@H](C(N)=O)[C@@H](C)O)C(C)C)NC(=O)[C@H](CC(N)=O)NC(=O)[C@H](CC(C)C)NC(=O)[C@H](Cc2ccc(O)cc2)NC1=O [SEQ ID NO:41, Ac-[O-Me-Tyr^10,Lys^12,Nle^17,Ala^19,Asp^25,Val^26,Thr^28]-VIP cyclo (Lys^21 →Asp^25)] (Ac-HSDAVFTDNY(Me)TKLRKQ[Nle]AAKKYLNDVLT-NH2; lactam 21-25)
  EC50: 2.6 nM

## CCCC[C@H](NC(=O)[C@H](CCC(N)=O)NC(=O)[C@H](CCCCN)NC(=O)[C@H](CCCNC(=N)N)NC(=O)[C@H](CC(C)C)NC(=O)[C@H](CCCCN)NC(=O)[C@@H](NC(=O)[C@H](Cc1ccc(O)cc1)NC(=O)[C@H](CC(N)=O)NC(=O)[C@H](CC(=O)O)NC(=O)[C@@H](NC(=O)[C@H](Cc1cccc2ccccc12)NC(=O)[C@@H](NC(=O)[C@H](C)NC(=O)[C@H](CC(=O)O)NC(=O)[C@H](CO)NC(=O)[C@H](Cc1c[nH]cn1)NC(C)=O)C(C)C)[C@@H](C)O)[C@@H](C)O)C(=O)N[C@@H](C)C(=O)N[C@@H](C)C(=O)N[C@@H](CCCCN)C(=O)N[C@H]1CCCCNC(=O)C[C@@H](C(=O)N[C@H](C(=O)N[C@@H](CC(C)C)C(=O)N[C@H](C(N)=O)[C@@H](C)O)C(C)C)NC(=O)[C@H](CC(N)=O)NC(=O)[C@H](CC(C)C)NC(=O)[C@H](Cc2ccc(O)cc2)NC1=O [SEQ ID NO:50, Ac-[1-Nal^6,Lys^12,Nle^17,Ala^19,Asp^25,Val^26,Thr^28]-VIP cyclo (Lys^21 →Asp^25)] (Ac-HSDAV[1Nal]TDNYTKLRKQ[Nle]AAKKYLNDVLT-NH2; lactam 21-25)
  EC50: 2.9 nM

## CCCC[C@H](NC(=O)[C@H](C)NC(=O)[C@H](CCCCN)NC(=O)[C@H](CCCNC(=N)N)NC(=O)[C@H](CC(C)C)NC(=O)[C@H](CCCCN)NC(=O)[C@@H](NC(=O)[C@H](Cc1ccc(O)cc1)NC(=O)[C@H](CC(N)=O)NC(=O)[C@H](CCC(=O)O)NC(=O)[C@@H](NC(=O)[C@H](Cc1ccccc1)NC(=O)[C@@H](NC(=O)[C@H](C)NC(=O)[C@H](CC(=O)O)NC(=O)[C@H](CO)NC(=O)[C@H](Cc1c[nH]cn1)NC(C)=O)C(C)C)[C@@H](C)O)[C@@H](C)O)C(=O)N[C@@H](C)C(=O)N[C@@H](C)C(=O)N[C@@H](CCCCN)C(=O)N[C@H]1CCCCNC(=O)C[C@@H](C(=O)N[C@@H](CC(C)C)C(=O)N[C@@H](CCCCN)C(=O)N[C@@H](CCCCN)C(N)=O)NC(=O)[C@H](CC(N)=O)NC(=O)[C@H](CC(C)C)NC(=O)[C@H](Cc2ccc(O)cc2)NC1=O [SEQ ID NO:63, Ac-[Glu^8,Lys^12,Ala^16,Nle^17,Ala^19,Asp^25,Leu^26,Lys^27,28]-VIP cyclo (Lys^21 →Asp^25)] (Ac-HSDAVFTENYTKLRKA[Nle]AAKKYLNDLKK-NH2; lactam 21-25)
  EC50: 0.9 nM
